Experimental data published in patent publication US20170042991A1, “COMPOSITIONS COMPRISING GLUTEN PEPTIDES AND USES THEREOF” (ImmusanT, Inc., priority 2014, published 2017).
Non-standard residues stand in square brackets, D forms with d. pGlu = O=C1CC[C@@H](C(=O)O)N1

Legend:
[1] = test system: whole blood; experiment: 96-well plate whole blood multiplex cytokine release, IFNγ (MAGPIX bead assay, Example 2); type: cell-based, human; conditions: for Percent of maximal response, IFNg: after oral gluten challenge; for IFNγ WB MAGPIX % max Mean: individual peptides 5 μM, Day-6, n = 8, Peptide 2 = CSBio batch
[2] = test system: gluten-reactive T cells; experiment: Cytokine release assays taken together (IFNγ ELISpot, whole blood IFNγ and IP-10 release); type: cell-based, human; conditions: for relative activity among individual peptides tested: blood collected after oral gluten challenge, HLA-DQ2.5+ subjects
Procedure: Gluten peptide solutions for addition to whole blood were arranged according to standardized templates in sterile 96-well U-bottom plates (30 μL/well). Plates were sealed with adhesive ELISA plate cover slips before the plastic lid was replaced and being frozen at −80° C. Whole blood assay (WBA) “medium” (1% DMSO in 90% PBS and 9% normal saline), mitogen (PHA-L, Sigma-Aldrich #L2769; St Louis Mo.) 100 μg/ml in WBA medium, and CEF diluted to 10 μg/ml in PBS with a final concentration of 1% DMSO were frozen separately in sterile cryovials. 96-well plates and cryovials with frozen incubation solutions were shipped on dry ice to the clinical site where blood was collected and incubations performed. Solutions were thawed at room temperature for 10 min just before being added to whole blood. 96-well plates were thawed while being centrifuged at 300 g to avoid surface condensation. A multi-channel pipette was used to efficiently transfer 25 μL of peptide solutions from the original 96-well plate to corresponding wells in a fresh sterile 96-well U-bottom plate. Once incubation solutions had been added, 225 μL of whole blood was added to each well and the plate transferred to incubate for 24 h at 37° C. 5% CO2. […] Individual peptides were incubated at a final assay concentration of 5 μM. Final concentrations of individual peptides assessed in P3 was 0.05-50 μg/mL, and in P14 and P13 pools 0.025-25 μM. The P71 pool was tested at between 0.005-10 μg/mL, the highest tested concentration being the maximal possible not exceeding 0.1% DMSO. Peptide pools, mitogen, and medium only were assessed in triplicate wells, and on Day-6 individual peptides were assessed in duplicate wells. Incubations were terminated after 24 h, and 96-well plates centrifuged at 300 g for 10 min. A total of approximately 90 to 120 μL of plasma was removed from each well taking care to avoid red cell contamination, and transferred into corresponding wells of two further 96-well plates (one with 30 μL/well and the residual in the second plate). Plasmas were frozen at −80° C. and later shipped on dry ice to the central lab where IP-10 and IFNγ multiplex bead assays were performed according to manufacturer's instructions using 25 μL plasma per well (Milliplex® MAP Human Cytokine/Chemokine Magnetic Bead Panel #HCYTOMAG-60k-02; EMD Millipore Corp., Billerica, Mass. 01821) and analysed with the Luminex® MAGPIX® System xPONENT® software (Luminex Corporation, Austin Tex. 78727). Plasma cytokine levels for each assay condition were expressed as the mean analyte concentration of each of the three replicate incubations. Laboratory staff were unaware of the arrangement of peptide solutions incubated with during assay setup and plate counting. […]

Substance	Percent of maximal response, IFNg ([1]; Subject 2, Max. 116 pg/mL)	Percent of maximal response, IFNg ([1]; Subject 3, Max. 799 pg/mL)	Percent of maximal response, IFNg ([1]; Subject 4, Max. 136 pg/mL)	Percent of maximal response, IFNg ([1]; Subject 6, Max. 72 pg/mL)	Percent of maximal response, IFNg ([1]; Subject 7, Max. 17 pg/mL)	Percent of maximal response, IFNg ([1]; Subject 8, Max. 47 pg/mL)	Percent of maximal response, IFNg ([1]; Subject 9, Max. 67 pg/mL)	Percent of maximal response, IFNg ([1]; Subject 10, Max. 229 pg/mL)	IFNγ WB MAGPIX % max Mean [1]	relative activity among individual peptides tested [2]	activity as a fraction of that of Peptide 14 ([2]; three cytokine release assays)	whole blood IFNγ release compared with that stimulated by Peptide 14 ([1]; whole blood incubations)
(pE)LQPFPQPELPYPQPQ-amide ([pGlu]LQPFPQPELPYPQPQ-NH2; SMILES CC(C)C[C@H](NC(=O)[C@@H]1CCC(=O)N1)C(=O)N[C@@H](CCC(N)=O)C(=O)N1CCC[C@H]1C(=O)N[C@@H](Cc1ccccc1)C(=O)N1CCC[C@H]1C(=O)N[C@@H](CCC(N)=O)C(=O)N1CCC[C@H]1C(=O)N[C@@H](CCC(=O)O)C(=O)N[C@@H](CC(C)C)C(=O)N1CCC[C@H]1C(=O)N[C@@H](Cc1ccc(O)cc1)C(=O)N1CCC[C@H]1C(=O)N[C@@H](CCC(N)=O)C(=O)N1CCC[C@H]1C(=O)N[C@@H](CCC(N)=O)C(N)=O) [Peptide 1]	100 % of max	14 % of max	26 % of max	25 % of max	43 % of max	6 % of max	43 % of max	7 % of max	33 % max	most active of this group of related peptides	no more than two-thirds	
(pE)PEQPIPEQPQPYPQQ-amide ([pGlu]PEQPIPEQPQPYPQQ-NH2; SMILES CC[C@H](C)[C@H](NC(=O)[C@@H]1CCCN1C(=O)[C@H](CCC(N)=O)NC(=O)[C@H](CCC(=O)O)NC(=O)[C@@H]1CCCN1C(=O)[C@@H]1CCC(=O)N1)C(=O)N1CCC[C@H]1C(=O)N[C@@H](CCC(=O)O)C(=O)N[C@@H](CCC(N)=O)C(=O)N1CCC[C@H]1C(=O)N[C@@H](CCC(N)=O)C(=O)N1CCC[C@H]1C(=O)N[C@@H](Cc1ccc(O)cc1)C(=O)N1CCC[C@H]1C(=O)N[C@@H](CCC(N)=O)C(=O)N[C@@H](CCC(N)=O)C(N)=O) [Peptide 3]	35 % of max	92 % of max	66 % of max	63 % of max	6 % of max	89 % of max	60 % of max	81 % of max	62 % max	consistently the second most active peptide after Peptide 14		one-third less
